Assays:
[1] = tested on: Salmonella typhimurium (TA1535, TA1537, TA98 and TA100) and Escherichia coli WP2 uvrA (pKM101); assay: Ames testing (bacterial mutagenicity, with and without S9-mix); details: absence and presence of S9-mix; for Ames Result (compound): 5 to 5000 ug/plate; for Ames Result (associated aniline): aniline associated with the compound
[2] = Determination of brain tissue binding (equilibrium dialysis); type: in vitro ADME; details: Sprague Dawley, rat whole brain homogenate, 5 h at 37° C.
Procedure: Sprague Dawley rat whole blood, collected on the week of the experiment using K3-EDTA as an anti-coagulant, is diluted with isotonic phosphate buffer 1:1 (v/v). Sprague Dawley rat whole brain, stored frozen at −20° C., is thawed and homogenised in artificial cerebrospinal fluid (CSF) 1:2 (w/v).
An appropriate amount of test compound is dissolved in DMSO to give a 10 millimolar solution. Further dilutions, to obtain a 166.7 micromolar working solution are then prepared using 50% acetonitrile in MilliQ water. This working solution is used to spike the blood to obtain a final concentration of 0.5 micromolar in whole blood. Similarly, the working solution is used to spike brain samples to obtain a final concentration of 5 micromolar in whole brain. From these spiked blood and brain preparations, control samples (n=3), are immediately extracted and used to calculate the initial recovery of the test items.
150 microL of compound-free buffer (isotonic phosphate buffer for blood or artificial CSF buffer for brain) is dispensed in one half-well and 150 microL of spiked matrix (blood or brain) is loaded in the other half-well, with the two halves separated by a semi-permeable membrane. After an equilibration period of 5 h at 37° C., 50 microL of dialysed matrix (blood or brain) is added to 50 microL of corresponding compound-free buffer, and vice-versa for buffer, such that the volume of buffer to matrix (blood or brain) remains the same. Samples are then extracted by protein precipitation with 300 microL of acetonitrile containing rolipram (control for positive ionization mode) or diclofenac (control for negative ionization mode) as internal standards and centrifuged for 10 min at 3000 rpm. Supernatants are collected (100 microL), diluted with 27% AcN in MilliQ water (200 microL) and then injected into an HPLC-MS/MS or UPLC-MS/MS system to determine the concentration of test compound present.
Blood and brain tissue binding are then determined using the following formulas: Afu=Buffer/Blood or Afu=CSF/Brain
Where Afu=apparent fraction unbound; Buffer=analyte/internal standard ratio determined in the buffer compartment; Blood=analyte/internal standard ratio determined in the blood compartment; Brain=analyte/internal standard ratio determined in the brain compartment.
[formula] where: fucr=Fraction unbound corrected; D=matrix dilution factor (D=2 for blood and D=3 for brain).
Then: % Binding=(1−fucr)×100 % Unbound=100−% Bound Brain/Blood Partition Ratio (Kbb) Determination

[3] = biological target: human Kv3.1 channels (hKv3.1) (Homo sapiens, UniProt P48547); assay: cell-based; type: cell-based; details: for Kv3.1 pEC50: HEK-hKv3.1 cells, -15 mV voltage step, normalised to 50 microM reference compound; for Kv3.1 max R %: maximum response relative to reference compound (50 microM)
From the text: The ability of the compounds of the invention to modulate the voltage-gated potassium channel subtypes Kv3.3/Kv3.2/Kv3.1 may be determined using the following assay. Analogous methods may be used to investigate the ability of the compounds of the invention to modulate other channel subtypes.
To assess compound effects on human Kv3.1 channels (hKv3.1):
Human embryonic kidney (HEK)-hKv3.1 cell line is generated by transfecting HEK-293 cells with an expression vector with human Kv3.1 (NM_004976.4). Cells are cultured with MEM supplemented with 10% Heat-Inactivated FBS, 2 mM L-glutamine, 1% Penicillin-Streptomycin, and 0.6 mg/ml of Geneticin (G418). HEK-hKv3.1b cells were amplified in T175 cm2 flask at 37° C. with 5% CO2, using MEM amplification medium, containing the G418 selection antibiotic (0.6 mg/ml). Cells were detached every 3-4 days, using DPBS to wash twice the flask, then TrypLE to dislodge the cells, and re-plated at a density of 2-4×10^6 cells/flask.
The day of the experiment, cells are removed from the incubator and the culture medium removed. Cells are washed with 5 ml of Dulbecco's PBS (DPBS) calcium and magnesium free and detached by the addition of 3 ml Versene (Invitrogen, Italy) followed by a brief incubation at 37° C. for 5 minutes. The flask is tapped to dislodge cells and 10 ml of DPBS containing calcium and magnesium is added to prepare a cell suspension. The cell suspension is then placed into a 15 ml centrifuge tube and centrifuged for 2 min at 1200 rpm. After centrifugation, the supernatant is removed and the cell pellet re-suspended in 4 ml of DPBS containing calcium and magnesium using a 5 ml pipette to break up the pellet. Cell suspension volume is then corrected to give a cell concentration for the assay of approximately 3 million cells per ml.
Experiments are conducted at r.t. using IonWorks Quattro™ planar array electrophysiology technology (Molecular Devices Corp.) with PatchPlate™ PPC. Stimulation protocols and data acquisition are carried out using a microcomputer (Dell Pentium 4). Planar electrode hole resistances (Rp) are determined by applying a 10 mV voltage step across each well. These measurements are performed before cell addition. After cell addition and seal formation, a seal test is performed by applying a voltage step from −80 mV to −70 mV for 160 ms. Following this, amphotericin-B solution is added to the intracellular face of the electrode to achieve intracellular access. Cells are held at −70 mV. Leak subtraction is conducted in all experiments by applying 50 ms hyperpolarizing (10 mV) prepulses to evoke leak currents followed by a 20 ms period at the holding potential before test pulses.
For hKv3.2 and hKv3.1, assays from the holding potential of −70 mV, a first test pulse at −15 mV was applied for 100 ms and after 100 ms at −70 mV a second pulse at +40 mV was applied for 50 ms. Cells were then maintained for 100 ms at −100 mV and another pulse from −70 mV to +40 mV (duration 50 ms) was applied to clamp later the voltage at −40 mV during 200 ms
The intracellular solution contains the following (in mM): K-gluconate 100, KCl 54, MgCl2 3.2, HEPES 5, adjusted to pH 7.3 with KOH. Amphotericin-B solution is prepared as 50 mg/ml stock solution in DMSO and diluted to a final working concentration of 0.1 mg/ml in intracellular solution. The external solution is Dulbecco's Phosphate Buffered Saline (DPBS) and contained the following (in mM): CaCl2 0.90, KCl 2.67, KH2PO4 1.47, MgCl·6H2O 0.493, NaCl 136.9, Na3PO4 8.06, with a pH of 7.4.
Compounds of use in the invention (or reference compounds such as N-cyclohexyl-N-[(7,8-dimethyl-2-oxo-1,2-dihydro-3-quinolinyl)methyl]-N-phenylurea) are dissolved in dimethylsulfoxide (DMSO) at a stock concentration of 10 mM. These solutions are further diluted with DMSO using a Biomek FX (Beckman Coulter) in a 384 compound plate. Each dilution (1 μL) is transferred to another compound plate and external solution containing 0.05% pluronic acid (66 μL) is added. […]

Row | SMILES | Ames Result (compound) [1] | fraction unbound at 5 h, 5 micromolar [2] | EC50 [3] | pEC50 and maxR in the Kv3.1 assay (in words) [3] | Kv3.1 pEC50 [3] | Kv3.1 max R % [3] | Ames Result (associated aniline) [1]
1 | Cc1ccc(Oc2cnc(N3C(=O)NC(C)(C)C3=O)cn2)c2c1OCC21CC1 [Example 1, 5,5-dimethyl-3-[5-(7-methylspiro[2H-benzofuran-3,1′-cyclopropane]-4-yl)oxypyrazin-2-yl]imidazolidine-2,4-dione] | Non- mutagenic | 0.043 | 2750 nM | high pEC50 and high maxR | 5.47 | 164% | 
2 | Cc1ccc(Oc2ccc(N3C(=O)NC(C)(C)C3=O)cn2)c2c1OCC21CC1 [RE6, reference compound] | Non- mutagenic | 0.028 |  |  | 5.58 | 144% | 
3 | Cc1ccc(Oc2ccc(N)cn2)c2c1OCC21CC1 [aniline associated with RE6/RE11] |  |  |  |  |  |  | Mutagenic for TA1535 in the presence of metabolic activation at 150 ug/plate
4 | Nc1cnc(Oc2cccc3c2C2(CC2)CO3)cn1 [aniline for Example 10] |  |  |  |  |  |  | Non-mutagenic
5 | Cc1ccc(Oc2cnc(N)cn2)c2c1OCC21CC1 [aniline for Examples 1 and 9] |  |  |  |  |  |  | Non-mutagenic
